According to PMC6429275, “Isothiocyanates and Glucosinolates from Sisymbrium officinale (L.) Scop. (“the Singers’ Plant”): Isolation and in Vitro Assays on the Somatosensory and Pain Receptor TRPA1 Channel” (Molecules, 2019):
“And” between values parts separate entries of the source, which are not always exact repeats. Equal entries are not always repeated. Where two headings read alike, the source gives them in different places.

Assays:
[1] = molecular target: T1, rat TRPA1 (Rattus norvegicus, UniProt Q6RI86); assay: Antagonist/desensitizing behavior against AITC 100 μM in rTRPA1-HEK-293 cells (5 min pre-incubation); assay type: cell-based
T1 construct: expressed in transfected cells; host or cells: HEK-293 cells, stably transfected
Experimental: (§1) Compound effects on intracellular Ca^2+ concentration ([Ca^2+]i) were determined using the selective intracellular fluorescent probe Fluo-4. Assays of the rat TRPA1-mediated elevation of intracellular Ca^2+ in transfected HEK-293 cells were performed as described. Briefly, human embryonic kidney (HEK-293) cells (stably transfected with rat TRPA1 or not transfected) were cultured in EMEM + 2 mM Glutamine + 1 % non-essential amino acids (NEAA) + 10 % FBS and maintained at 37 °C with 5 % CO2. On the day of the experiment, the cells were loaded with Fluo-4 AM (4 μM) for 1 h at room temperature, rinsed and resuspended in Tyrode’s solution (145 mM NaCl, 2.5 mM KCl, 1.5 mM CaCl2, 1.2 mM MgCl2, 10 mM d-glucose, and 10 mM HEPES, pH 7.4), and finally transferred to a quartz cuvette of a spectrofluorimeter (Perkin-Elmer LS50B, Perkin Elmer Inc, Buckinghamshire, UK); λEX = 488 nm, λEM = 516 nm) equipped with a PTP-1 Fluorescence Peltier System (PerkinElmer Life and Analytical Sciences, Waltham, MA, USA) under continuous stirring. Cell fluorescence before and after the addition of various concentrations of test compounds was measured, normalizing the effects against the response to ionomycin (4 µM). The values of the effect on [Ca^2+]i in not-transfected HEK-293 cells were used as a baseline and subtracted from the values obtained from transfected cells. Agonist efficacy was expressed as a percentage of the effect on [Ca^2+]i observed with 100 μM allylisothiocyanate (AITC). The potency of the compounds (EC50 values) was determined as the concentration required to produce half-maximal increases in [Ca^2+]i. Antagonist/desensitizing behavior as evaluated against TRPA1 agonist AITC 100 μM by adding the compound directly into the quartz cuvette 5 min before the stimulation of cells with the agonist. IC50 is expressed as the concentration exerting a half-maximal inhibition of an agonist effect, taking as 100% the effect on [Ca^2+]i exerted by the agonist alone. Dose–response curves are fitted by a sigmoidal regression with a variable slope. Curve fitting and parameter estimation were performed with a GraphPad Prism (GraphPad Software Inc., San Diego, CA). Three independent experiments were done for each determination; all determinations were performed at least in triplicate. The time-course spectra showing the increase of intracellular Ca^2+ upon application of the compounds are available in Supplementary Material (S10).

[2] = test system: not-transfected HEK cells; assay: Intracellular Ca2+ elevation in not-transfected HEK-293 cells; assay type: cell-based, human; settings: compound at 100 μM
Experimental: Compound effects on intracellular Ca^2+ concentration ([Ca^2+]i) were determined using the selective intracellular fluorescent probe Fluo-4. Assays of the rat TRPA1-mediated elevation of intracellular Ca^2+ in transfected HEK-293 cells were performed as described. Briefly, human embryonic kidney (HEK-293) cells (stably transfected with rat TRPA1 or not transfected) were cultured in EMEM + 2 mM Glutamine + 1 % non-essential amino acids (NEAA) + 10 % FBS and maintained at 37 °C with 5 % CO2. On the day of the experiment, the cells were loaded with Fluo-4 AM (4 μM) for 1 h at room temperature, rinsed and resuspended in Tyrode’s solution (145 mM NaCl, 2.5 mM KCl, 1.5 mM CaCl2, 1.2 mM MgCl2, 10 mM d-glucose, and 10 mM HEPES, pH 7.4), and finally transferred to a quartz cuvette of a spectrofluorimeter (Perkin-Elmer LS50B, Perkin Elmer Inc, Buckinghamshire, UK); λEX = 488 nm, λEM = 516 nm) equipped with a PTP-1 Fluorescence Peltier System (PerkinElmer Life and Analytical Sciences, Waltham, MA, USA) under continuous stirring. Cell fluorescence before and after the addition of various concentrations of test compounds was measured, normalizing the effects against the response to ionomycin (4 µM). […] Agonist efficacy was expressed as a percentage of the effect on [Ca^2+]i observed with 100 μM allylisothiocyanate (AITC). […]

[3] = molecular target: T1, rat TRPA1; assay: rat TRPA1-mediated elevation of intracellular Ca2+ (Fluo-4) in transfected HEK-293 cells, agonist mode; assay type: cell-based; settings: for EC50: Potency EC50, TRPA1, concentration producing half-maximal increase in [Ca2+]i; for EC50 / Efficacy (%AITC 100μM): rTRPA1-HEK-293 cells; for Efficacy (%AITC 100μM): TRPA1, percentage of the effect on [Ca2+]i observed with 100 μM allylisothiocyanate (AITC); for activity on TRPA1 channel (result in words): in vitro assays on TRPA1
Experimental: as §1

T1 sequence (Q6RI86 whole entry): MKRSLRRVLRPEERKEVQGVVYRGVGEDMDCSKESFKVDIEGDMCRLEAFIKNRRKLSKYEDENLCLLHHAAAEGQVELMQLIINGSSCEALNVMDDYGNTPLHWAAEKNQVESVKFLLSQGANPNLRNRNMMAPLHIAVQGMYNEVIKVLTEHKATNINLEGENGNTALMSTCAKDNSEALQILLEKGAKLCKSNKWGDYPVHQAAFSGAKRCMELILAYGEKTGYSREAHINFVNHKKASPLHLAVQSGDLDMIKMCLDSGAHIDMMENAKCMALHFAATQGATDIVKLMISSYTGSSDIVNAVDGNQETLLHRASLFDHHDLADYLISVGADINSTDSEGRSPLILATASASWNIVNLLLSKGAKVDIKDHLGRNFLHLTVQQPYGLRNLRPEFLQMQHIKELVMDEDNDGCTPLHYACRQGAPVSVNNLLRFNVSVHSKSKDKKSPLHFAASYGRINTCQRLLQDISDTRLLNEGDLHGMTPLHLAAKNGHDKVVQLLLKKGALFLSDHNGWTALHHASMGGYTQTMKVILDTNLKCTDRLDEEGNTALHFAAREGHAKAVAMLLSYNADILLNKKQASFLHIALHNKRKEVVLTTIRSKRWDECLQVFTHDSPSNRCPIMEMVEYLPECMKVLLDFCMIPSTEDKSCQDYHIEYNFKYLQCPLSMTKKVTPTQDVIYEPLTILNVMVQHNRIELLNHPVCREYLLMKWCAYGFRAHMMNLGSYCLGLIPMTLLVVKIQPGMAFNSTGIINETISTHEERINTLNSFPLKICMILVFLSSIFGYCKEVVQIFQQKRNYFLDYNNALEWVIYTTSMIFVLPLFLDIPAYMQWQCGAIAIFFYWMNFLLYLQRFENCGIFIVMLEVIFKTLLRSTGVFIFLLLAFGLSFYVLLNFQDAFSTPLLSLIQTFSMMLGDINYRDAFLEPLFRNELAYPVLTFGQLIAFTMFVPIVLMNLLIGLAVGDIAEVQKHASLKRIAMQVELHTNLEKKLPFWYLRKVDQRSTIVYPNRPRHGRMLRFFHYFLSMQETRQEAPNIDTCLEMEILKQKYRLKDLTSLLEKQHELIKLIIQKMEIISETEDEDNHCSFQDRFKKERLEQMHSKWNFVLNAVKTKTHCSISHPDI

Structure (SMILES)	IC50 [1] [µM]	activity (elevation of internal Ca2+) on not-transfected HEK cells [2]	EC50 [3] [µM]	Efficacy (%AITC 100μM) [3]	activity on TRPA1 channel (result in words) [3]	activity on TRPA1 channel (result in words) ([3]; listed as sinigrin)	IC50 ([1]; compound added 5 min before stimulation with AITC 100 μM, rTRPA1-HEK-293 cells, read-out: IC50 Inhibition TRPA1 (AITC 100μM)) [µM]	activity on TRPA1 channel (result in words) ([3]; listed as glucoputranjivin)
CC(C)N=C=S [Compound 2, isopropylisothiocyanate]	10.8 ± 0.4	less than 1%	5.9 ± 0.4	108.8% and 108.8 ± 1.6%				
CCC(C)N=C=S (stereo not shown) [Compound 4, 2-butylisothiocyanate]	12.1 ± 0.2	less than 1%	4.9 ± 0.2	98.0% and 98.0 ± 1.0%				
C=CCC(=NOS(=O)(=O)O)S[C@@H]1O[C@H](CO)[C@@H](O)[C@H](O)[C@H]1O (stereo in doubt) [Compound 5, sinigrin, reference compound]	> 100			<10%	ineffective	inactive		
CC(C)/C(=N/OS(=O)(=O)O)S[C@@H]1O[C@H](CO)[C@@H](O)[C@H](O)[C@H]1O [Compound 1, glucoputranjivin]				<10%	ineffective		> 100	inactive
